Structures are written as SMILES. Read-outs that look alike come from different tables or passages of the source.

The conditions of data set [1]: cited from earlier work; for side effects on clinical use, in words: conventional neuroleptics.
The subject of data set [2] is climbing behavior induced by apomorphine. The data set is described as follows: Anti-climbing behavior test (suppression of climbing behavior induced by apomorphine in mice). Type of data set: in vivo, dd strain male mice. Conditions: for ED50: Mus musculus. An excerpt: This activity was examined through the anti-climbing behavior test, i.e. the test for suppressing the climbing behavior induced by apomorphine in mice. A designated amount of the test compound was orally administered to several groups of dd strain male mice (bodyweight, 20 to 25 g; one group, 5 mice), and each of the animals was charged in an individual column cage of 12 cm in diameter and 14 cm in height having metal poles (each pole, 2 mm in diameter) vertically installed and arranged along the periphery with intervals of 1 cm. […]
0 All the paws were on the floor
1 Only forepaws seized the pole of the cage
2 All the paws seized the pole of the cage;
climbing behavior observed discontinu-
3 Continuous climbing behavior observed

The test system of the next data set is catalepsy induction. Kind of data set: Extrapyramidal activity: catalepsy inducing activity test. Conditions: oral. The class given is in vivo, dd strain male mice. As for the experimental part: (§1) A designated amount of the test compound was orally administered to dd strain male mice (bodyweight, 22 to 27 g), and 1 and 4 hours after the administration, catalepsy induction was checked according to the Wirth et al method. Thus, each of the animals was forced to hang its forepaws onto a metal pole of 2.5 mm in diameter horizontally situated at a height of 5 cm to keep in a strained state. The test was made with three repetitions, and the presence of at least one case in which the animal was kept in the strained state over a period of 30 seconds was deemed to have caused catalepsy.

Experiment in data set [3]: as above
Type of data set: in vivo, dd strain male mice. Conditions: mouse, in vivo; oral; catalepsy checked 1 and 4 hours after administration; strained state over 30 seconds; mice. The method, then: as §1

[4] abbreviates: sc, subcutaneous, apomorphine 1.0 mg/kg s.c., mice, read-out: ED50, Subcutaneous administration (anti-climbing, neuroleptic activity).
Setting [5] is: oral, after 1 hour, apomorphine 1.0 mg/kg s.c., mice, read-out: ED50, Oral administration After 1 hour (anti-climbing, neuroleptic activity).
[6] abbreviates: oral, after 4 hours, apomorphine 1.0 mg/kg s.c., mice, read-out: ED50, Oral administration After 4 hours (anti-climbing, neuroleptic activity).

Consider `CN(C)CCCN1c2ccccc2Sc2ccc(Cl)cc21` [chlorpromazine, 2-chloro-10-(3-dimethylaminopropyl)phenothiazine], for which the “side effects on clinical use, in words” value in data set [1] was “serious side effects such as catalepsy and hypotension”.
As for `O=C(CCCN1CCC(O)(c2ccc(Cl)cc2)CC1)c1ccc(F)cc1` [Haloperidol, 4-[4-(4-chlorophenyl)-4-hydroxy-1-piperidinyl]-1-(4-fluorophenyl)-1-butanone], the ED50 is 0.67 mg/kg in data set [2] (po, 1 h, read-out: ED50, Oral administration After 1 hour (anti-climbing, neuroleptic activity)); 0.44 mg/kg in data set [2] (po, 4 h, read-out: ED50, Oral administration After 4 hours (anti-climbing, neuroleptic activity)); 0.21 mg/kg in data set [2] (sc, read-out: ED50, Subcutaneous administration (anti-climbing, neuroleptic activity)); 3 mg/kg in data set [3]. Besides, the “neuroleptic activity (anti-climbing activity), in words” value in data set [2] (route not stated) is on record as “significant neuroleptic activity”. Moreover, in data set [1], the “side effects on clinical use, in words” value is “serious side effects such as catalepsy and hypotension”. Further, the “extrapyramidal activity (catalepsy inducing activity), in words” value with catalepsy induction is given as “considerably high level of extra-pyramidal activity”.
Take `O=C(c1ccc(F)cc1)C1CCN(CCCCN2C(=O)[C@@H]3[C@H]4CC[C@H](C4)[C@@H]3C2=O)CC1` [Compound No. 1, N-[4-{4-(4-Fluorobenzoyl)piperidinyl}butyl]bicyclo[2.2.1]heptane-2,3-di-exo-carboximide]: the ED50 is 0.12 mg/kg in data set [2] (setting [4]), 3.7 mg/kg in data set [2] (setting [5]), 21.8 mg/kg in data set [2] (setting [6]) and 25 to 50 mg/kg in data set [3].
On the same counts, the results for `O=C(c1ccc(F)cc1)C1CCN(CCCCN2C(=O)[C@@H]3[C@H](C2=O)[C@H]2C=C[C@@H]3C2)CC1` [Compound No. 5, N-[4-{4-(4-Fluorobenzoyl)piperidinyl}butyl]bicyclo[2.2.1]hept-5-ene-2,3-di-exo-carboximide] are less than 1 mg/kg, 1.3 mg/kg, 2.2 mg/kg and 25 mg/kg.
Turning to `O=C1[C@@H]2[C@H]3CC[C@H](C3)[C@@H]2C(=O)N1CCCCN1CCC(c2nsc3ccccc23)CC1` [Compound No. 2, N-[4-{4-(1,2-Benzisothiazol-3-yl)-1-piperidinyl}butyl]bicyclo[2.2.1]heptane-2,3-di-exo-carboximide], the ED50 in data set [2] (setting [5]) is 3.5 mg/kg; in data set [2] (setting [6]) it was 3.4 mg/kg; in data set [3], 10 to 30 mg/kg.
Take `O=C1CC2(CCCC2)CC(=O)N1CCCCN1CCN(c2nsc3ccccc23)CC1` [Tiaspiron, 8-[4-(3-benzisothiazolyl)-1-piperazinylbutyl]-8-azaspiro[4,5]decane-7,9-dione]: the ED50 in data set [2] (setting [4]) came out at 0.23 mg/kg; in data set [2] (setting [5]), 9.4 mg/kg; in data set [2] (setting [6]) it was 61.5 mg/kg. The “extrapyramidal side effects such as catalepsy inducing activity, in words” value in data set [1] (in comparison with butyrophenone compounds such as haloperidol) is reported as “alleviated in extrapyramidal side effects such as catalepsy inducing activity”.

These data come from US4812461A, “Imide derivatives and their use in the treatment psychosis” (Sumitomo Pharmaceuticals Company, Limited, priority 1986, dated 1989).
